Test results taken from PubChem BioAssay AID248 (DTP/NCI, 2004).
Values joined by “and” are separate entries in the source; they are usually repeats but may differ in a detail not shown here. Equal values may be shown once. Toxic doses and inconclusive results are not listed. Cut-off read from the data, not from the text of the source: active = T/C of 150% or more; inactive = T/C below 125%.

Tested on: L1210 leukemia ip in BDF1 mice, survival T/C
Assay: NCI In Vivo Anticancer Drug Screen. Data for tumor model L1210 Leukemia (intraperitoneal) in B6D2F1 (BDF1) mice
Details: endpoint: mean survival time, higher = longer survival
Procedure, shortened: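 Ratio derived from survival: compound-dosed mice over vehicle-dosed mice, all bearing a transplantable tumor.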

[1] = dose: 100.0 mg/kg/injection, schedule: Q01DX009 (ip), vehicle: Klucel (hydroxypropylcellulose) (HPC)
[2] = dose: 200.0 mg/kg/injection, schedule: Q01DX009 (ip), vehicle: Klucel (hydroxypropylcellulose) (HPC)
[3] = dose: 100.0 mg/kg/injection, schedule: Q01DX009 (ip), vehicle: saline with Tween-80
[4] = dose: 200.0 mg/kg/injection, schedule: Q01DX009 (ip), vehicle: saline with Tween-80
[5] = dose: 100.0 mg/kg/injection, schedule: Q04DX003 (ip), vehicle: saline
[6] = dose: 200.0 mg/kg/injection, schedule: Q04DX003 (ip), vehicle: saline
[7] = dose: 400.0 mg/kg/injection, schedule: Q01DX009 (ip), vehicle: Klucel (hydroxypropylcellulose) (HPC)
[8] = dose: 400.0 mg/kg/injection, schedule: Q04DX003 (ip), vehicle: saline
[9] = dose: 25.0 mg/kg/injection, schedule: Q01DX009 (ip), vehicle: saline with Tween-80
[10] = dose: 50.0 mg/kg/injection, schedule: Q01DX009 (ip), vehicle: saline with Tween-80
[11] = dose: 100.0 mg/kg/injection, schedule: Q01DX001 (ip), vehicle: Klucel (hydroxypropylcellulose) (HPC)
[12] = dose: 200.0 mg/kg/injection, schedule: Q01DX001 (ip), vehicle: Klucel (hydroxypropylcellulose) (HPC)
[13] = dose: 400.0 mg/kg/injection, schedule: Q01DX001 (ip), vehicle: Klucel (hydroxypropylcellulose) (HPC)
[14] = dose: 50.0 mg/kg/injection, schedule: Q01DX001 (ip), vehicle: saline
[15] = dose: 100.0 mg/kg/injection, schedule: Q01DX001 (ip), vehicle: saline
[16] = dose: 200.0 mg/kg/injection, schedule: Q01DX001 (ip), vehicle: saline
[17] = dose: 100.0 mg/kg/injection, schedule: Q04DX003 (ip), vehicle: carboxymethylcellulose (CMC)
[18] = dose: 200.0 mg/kg/injection, schedule: Q04DX003 (ip), vehicle: carboxymethylcellulose (CMC)

Measured: T/C

O=C(O)c1cnc(C(=O)O)cn1
inactive: dose: 50.0 mg/kg/injection, schedule: Q01DX009 (ip), vehicle: Klucel (hydroxypropylcellulose) (HPC) 98 % of control | [1] 87 % of control | [2] 91 % of control

CCCCOC(=O)Nc1cccc(O)c1
inactive: [3] 92 % of control | [4] 87 % of control

C=CCOC(=O)Nc1cccc(OC(=O)NC)c1
inactive: dose: 100.0 mg/kg/injection, schedule: Q04DX003 (ip), vehicle: saline with Tween-80 105 % of control | dose: 200.0 mg/kg/injection, schedule: Q04DX003 (ip), vehicle: saline with Tween-80 105 % of control | dose: 400.0 mg/kg/injection, schedule: Q04DX003 (ip), vehicle: saline with Tween-80 100 % of control

CC(C)N(/N=N/c1[nH]ncc1C(N)=O)C(C)C
inactive: dose: 100.0 mg/kg/injection, schedule: Q01DX001 (ip), vehicle: saline with Tween-80 104 % of control | [3] 108 % of control | dose: 200.0 mg/kg/injection, schedule: Q01DX001 (ip), vehicle: saline with Tween-80 104 % of control | [4] 98 % of control | dose: 400.0 mg/kg/injection, schedule: Q01DX001 (ip), vehicle: saline with Tween-80 93 % of control | dose: 400.0 mg/kg/injection, schedule: Q01DX009 (ip), vehicle: saline with Tween-80 95 % of control

Cc1ccc(C(C)C)c(OCC(O)CN2CC=CCC2)c1 (stereo not drawn)
inactive: dose: 25.0 mg/kg/injection, schedule: Q04DX003 (ip), vehicle: saline 100 % of control | dose: 50.0 mg/kg/injection, schedule: Q04DX003 (ip), vehicle: saline 112 % of control | [5] 99 % of control and 109 % of control

CCCCCCCC(=O)NCCCC
inactive: [1] 105 % of control | [5] 99 % of control | [2] 95 % of control | [6] 101 % of control | [7] 109 % of control | [8] 99 % of control

Oc1cc(O)c(CN(CCCl)CCCl)cc1CN(CCCl)CCCl
inactive: dose: 5.5 mg/kg/injection, schedule: Q01DX009 (ip), vehicle: saline 115 % of control | dose: 8.2 mg/kg/injection, schedule: Q01DX009 (ip), vehicle: saline 121 % of control | dose: 18.75 mg/kg/injection, schedule: Q01DX009 (ip), vehicle: saline 103 % of control | [9] 101 % of control | dose: 50.0 mg/kg/injection, schedule: Q01DX001 (ip), vehicle: carboxymethylcellulose (CMC) 115 % of control | [10] 94 % of control | dose: 100.0 mg/kg/injection, schedule: Q01DX001 (ip), vehicle: carboxymethylcellulose (CMC) 115 % of control | [5] 110 % of control | dose: 200.0 mg/kg/injection, schedule: Q01DX001 (ip), vehicle: carboxymethylcellulose (CMC) 108 % of control | [6] 92 % of control | dose: 400.0 mg/kg/injection, schedule: Q01DX001 (ip), vehicle: carboxymethylcellulose (CMC) 123 % of control | [8] 90 % of control | dose: 800.0 mg/kg/injection, schedule: Q04DX003 (ip), vehicle: saline 100 % of control

CC(C)(C)OC(=O)CSC#N
inactive: dose: 5.0 mg/kg/injection, schedule: Q01DX001 (ip), vehicle: saline 101 % of control | dose: 10.0 mg/kg/injection, schedule: Q01DX001 (ip), vehicle: saline 95 % of control | dose: 20.0 mg/kg/injection, schedule: Q01DX001 (ip), vehicle: saline 101 % of control

CCOC(=O)/C=C(/CC(=O)OCC)OCC
inactive: dose: 50.0 mg/kg/injection, schedule: Q01DX005 (ip), vehicle: saline 104 % of control | dose: 100.0 mg/kg/injection, schedule: Q01DX005 (ip), vehicle: saline 94 % of control | dose: 200.0 mg/kg/injection, schedule: Q01DX005 (ip), vehicle: saline 96 % of control | dose: 400.0 mg/kg/injection, schedule: Q01DX005 (ip), vehicle: saline 100 % of control

Cc1ccc(C)c(Cl)c1Cl
inactive: dose: 75.0 mg/kg/injection, schedule: Q01DX009 (ip), vehicle: saline sonified 98 % of control | [5] 103 % of control | dose: 150.0 mg/kg/injection, schedule: Q01DX009 (ip), vehicle: saline sonified 103 % of control | [6] 108 % of control | dose: 300.0 mg/kg/injection, schedule: Q01DX009 (ip), vehicle: saline sonified 99 % of control | [8] 103 % of control

COCC(=O)Oc1cc(-c2ccc(C)cc2C)c(OC(=O)COC)c(-c2ccc(C)cc2C)c1
inactive: dose: 75.0 mg/kg/injection, schedule: Q04DX003 (ip), vehicle: Klucel (hydroxypropylcellulose) (HPC) 90 % of control | [11] 90 % of control | dose: 150.0 mg/kg/injection, schedule: Q04DX003 (ip), vehicle: Klucel (hydroxypropylcellulose) (HPC) 87 % of control | [12] 91 % of control | dose: 300.0 mg/kg/injection, schedule: Q04DX003 (ip), vehicle: Klucel (hydroxypropylcellulose) (HPC) 93 % of control and 94 % of control | [13] 101 % of control

Cc1cc(C)cc(OC(=S)N(C)C)c1
inactive: [11] 93 % of control | [12] 98 % of control | [13] 95 % of control

COC(=O)c1ccccc1NS(=O)(=O)c1ccc(Cl)cc1
inactive: dose: 100.0 mg/kg/injection, schedule: Q04DX002 (ip), vehicle: Klucel (hydroxypropylcellulose) (HPC) 94 % of control | dose: 400.0 mg/kg/injection, schedule: Q04DX002 (ip), vehicle: Klucel (hydroxypropylcellulose) (HPC) 110 % of control

CCOC(=O)C1CCNC(=O)C1=O (stereo not drawn)
inactive: [14] 104 % of control | [15] 101 % of control | [16] 97 % of control

N#CC(C#N)=c1ccc(=C(C#N)C#N)cc1
inactive: [9] 91 % of control | [14] 94 % of control | [10] 89 % of control | [15] 103 % of control | [3] 91 % of control | [16] 103 % of control

CCSC(=N)N=Nc1ccc(O)cc1
inactive: [14] 104 % of control | [15] 98 % of control | [16] 102 % of control

O=C(c1ccc(-c2ccccc2)cc1)C1CC1
inactive: [1] 97 % of control | [2] 97 % of control | [7] 91 % of control

O=S(=O)(Nc1cccc2ccccc12)c1cccc2cccnc12
inactive: dose: 100.0 mg/kg/injection, schedule: Q04DX003 (ip), vehicle: Klucel (hydroxypropylcellulose) (HPC) 90 % of control | dose: 200.0 mg/kg/injection, schedule: Q04DX003 (ip), vehicle: Klucel (hydroxypropylcellulose) (HPC) 91 % of control | dose: 400.0 mg/kg/injection, schedule: Q04DX003 (ip), vehicle: Klucel (hydroxypropylcellulose) (HPC) 91 % of control

CCC1(C(C)=O)CN2CCc3cc(OC)c(OC)cc3C2N2CCc3ccc(OC)c(OC)c3C21 (stereo not drawn)
inactive: [17] 95 % of control | [18] 98 % of control | dose: 400.0 mg/kg/injection, schedule: Q04DX003 (ip), vehicle: carboxymethylcellulose (CMC) 95 % of control

N#CC1(C(N)=O)OC1c1ccccc1Cl (stereo not drawn)
inactive: [17] 97 % of control | [18] 98 % of control
